According to ChEMBL document CHEMBL1131209 (J Med Chem, 1998):

How the values were obtained:
[1] = target: Serotonin 2 (5-HT2) receptor; experiment: Compound was tested for its binding affinity towards 5-hydroxytryptamine 2 receptor using [3H]ketanserin from guinea pig frontal cortex; type: tissue-based, Cavia porcellus
[2] = target: T1, Alpha-1A adrenergic receptor (Rattus norvegicus, UniProt P43140); experiment: Compound was tested for its binding affinity towards Alpha-1A adrenergic receptor using [3H]prazosin from rat submaxillary gland
T1 sequence (P43140 whole entry): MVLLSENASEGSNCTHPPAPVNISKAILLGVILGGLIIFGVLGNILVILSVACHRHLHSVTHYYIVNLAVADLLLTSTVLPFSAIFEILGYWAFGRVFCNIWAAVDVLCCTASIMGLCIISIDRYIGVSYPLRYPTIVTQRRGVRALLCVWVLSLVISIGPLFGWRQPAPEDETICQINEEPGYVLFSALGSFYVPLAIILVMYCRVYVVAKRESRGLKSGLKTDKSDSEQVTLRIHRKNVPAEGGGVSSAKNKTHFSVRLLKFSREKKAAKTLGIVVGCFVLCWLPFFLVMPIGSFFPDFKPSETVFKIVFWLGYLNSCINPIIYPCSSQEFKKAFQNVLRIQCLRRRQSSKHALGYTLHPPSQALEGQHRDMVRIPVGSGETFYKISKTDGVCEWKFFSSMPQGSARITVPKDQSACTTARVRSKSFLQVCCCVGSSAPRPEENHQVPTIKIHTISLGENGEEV

[3] = target: T2, Alpha-1B adrenergic receptor (Rattus norvegicus, UniProt P15823); experiment: Compound was tested for its binding affinity towards Alpha-1B adrenergic receptor using [3H]prazosin from rat liver
T2 sequence (P15823 whole entry): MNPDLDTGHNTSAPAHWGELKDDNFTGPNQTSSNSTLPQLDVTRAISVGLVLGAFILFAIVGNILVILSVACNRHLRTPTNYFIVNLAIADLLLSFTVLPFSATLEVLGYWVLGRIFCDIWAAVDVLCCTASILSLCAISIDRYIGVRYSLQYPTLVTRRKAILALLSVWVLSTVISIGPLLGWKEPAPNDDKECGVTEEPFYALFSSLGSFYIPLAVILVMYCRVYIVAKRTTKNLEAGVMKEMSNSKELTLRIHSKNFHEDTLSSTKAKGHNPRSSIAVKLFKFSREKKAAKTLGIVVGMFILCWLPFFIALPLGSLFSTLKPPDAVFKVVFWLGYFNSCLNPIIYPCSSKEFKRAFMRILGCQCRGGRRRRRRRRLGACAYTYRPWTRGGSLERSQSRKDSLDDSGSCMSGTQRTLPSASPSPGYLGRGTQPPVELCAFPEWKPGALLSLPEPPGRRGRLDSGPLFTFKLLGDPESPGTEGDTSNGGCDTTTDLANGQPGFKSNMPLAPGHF

[4] = target: Muscarinic acetylcholine receptor M3 (Rattus norvegicus, UniProt P08483); experiment: Compound was tested for its binding affinity towards Muscarinic acetylcholine receptor M3 using [3H]NMS from rat submaxillary gland
Sequence of Muscarinic acetylcholine receptor M3 (P08483 whole entry): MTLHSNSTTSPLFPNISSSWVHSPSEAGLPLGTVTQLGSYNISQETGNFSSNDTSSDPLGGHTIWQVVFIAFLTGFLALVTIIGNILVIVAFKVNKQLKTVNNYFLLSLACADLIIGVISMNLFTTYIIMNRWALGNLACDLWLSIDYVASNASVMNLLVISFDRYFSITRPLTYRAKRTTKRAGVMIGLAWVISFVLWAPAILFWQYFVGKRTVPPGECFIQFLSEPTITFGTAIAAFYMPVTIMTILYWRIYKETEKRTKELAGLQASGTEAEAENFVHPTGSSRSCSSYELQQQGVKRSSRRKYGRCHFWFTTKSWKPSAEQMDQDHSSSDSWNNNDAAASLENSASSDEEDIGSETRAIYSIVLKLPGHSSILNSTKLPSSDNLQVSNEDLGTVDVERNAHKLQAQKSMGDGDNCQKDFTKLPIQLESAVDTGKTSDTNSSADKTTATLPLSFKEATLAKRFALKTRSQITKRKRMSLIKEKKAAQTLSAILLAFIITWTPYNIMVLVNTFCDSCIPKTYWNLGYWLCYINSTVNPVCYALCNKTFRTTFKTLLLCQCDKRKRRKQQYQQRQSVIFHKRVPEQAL

[5] = target: T3, Muscarinic acetylcholine receptor M2 (Rattus norvegicus, UniProt P10980); experiment: Compound was tested for its binding affinity towards Muscarinic acetylcholine receptor M2 using [3H]NMS from rat heart
T3 sequence (P10980 whole entry): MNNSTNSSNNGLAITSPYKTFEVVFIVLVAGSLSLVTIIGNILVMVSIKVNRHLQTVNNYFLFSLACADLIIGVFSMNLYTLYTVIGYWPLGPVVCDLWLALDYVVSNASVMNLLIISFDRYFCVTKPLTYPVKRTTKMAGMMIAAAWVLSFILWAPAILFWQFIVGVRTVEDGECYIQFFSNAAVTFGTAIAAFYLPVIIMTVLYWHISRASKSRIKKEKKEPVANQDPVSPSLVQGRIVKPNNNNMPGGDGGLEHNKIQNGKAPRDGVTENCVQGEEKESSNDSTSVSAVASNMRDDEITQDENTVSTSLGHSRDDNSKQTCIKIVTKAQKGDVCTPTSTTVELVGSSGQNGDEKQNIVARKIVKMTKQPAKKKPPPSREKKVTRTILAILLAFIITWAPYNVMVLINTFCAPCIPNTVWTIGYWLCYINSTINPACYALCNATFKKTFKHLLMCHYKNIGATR

[6] = target: Opioid receptor (Rattus norvegicus, UniProt P33533+P34975+P33535); experiment: Compound was tested for its binding affinity towards Opioid receptors using [3H]naloxone from rat whole brain
[7] = target: Glutamate receptor ionotropic, NMDA 2C (Rattus norvegicus, UniProt Q00961); experiment: Compound was tested for its binding affinity towards PCP receptor using [3H](+)-NANM in the presence of 5 uM haloperidol from rat brain
Sequence of Glutamate receptor ionotropic, NMDA 2C (Q00961 whole entry): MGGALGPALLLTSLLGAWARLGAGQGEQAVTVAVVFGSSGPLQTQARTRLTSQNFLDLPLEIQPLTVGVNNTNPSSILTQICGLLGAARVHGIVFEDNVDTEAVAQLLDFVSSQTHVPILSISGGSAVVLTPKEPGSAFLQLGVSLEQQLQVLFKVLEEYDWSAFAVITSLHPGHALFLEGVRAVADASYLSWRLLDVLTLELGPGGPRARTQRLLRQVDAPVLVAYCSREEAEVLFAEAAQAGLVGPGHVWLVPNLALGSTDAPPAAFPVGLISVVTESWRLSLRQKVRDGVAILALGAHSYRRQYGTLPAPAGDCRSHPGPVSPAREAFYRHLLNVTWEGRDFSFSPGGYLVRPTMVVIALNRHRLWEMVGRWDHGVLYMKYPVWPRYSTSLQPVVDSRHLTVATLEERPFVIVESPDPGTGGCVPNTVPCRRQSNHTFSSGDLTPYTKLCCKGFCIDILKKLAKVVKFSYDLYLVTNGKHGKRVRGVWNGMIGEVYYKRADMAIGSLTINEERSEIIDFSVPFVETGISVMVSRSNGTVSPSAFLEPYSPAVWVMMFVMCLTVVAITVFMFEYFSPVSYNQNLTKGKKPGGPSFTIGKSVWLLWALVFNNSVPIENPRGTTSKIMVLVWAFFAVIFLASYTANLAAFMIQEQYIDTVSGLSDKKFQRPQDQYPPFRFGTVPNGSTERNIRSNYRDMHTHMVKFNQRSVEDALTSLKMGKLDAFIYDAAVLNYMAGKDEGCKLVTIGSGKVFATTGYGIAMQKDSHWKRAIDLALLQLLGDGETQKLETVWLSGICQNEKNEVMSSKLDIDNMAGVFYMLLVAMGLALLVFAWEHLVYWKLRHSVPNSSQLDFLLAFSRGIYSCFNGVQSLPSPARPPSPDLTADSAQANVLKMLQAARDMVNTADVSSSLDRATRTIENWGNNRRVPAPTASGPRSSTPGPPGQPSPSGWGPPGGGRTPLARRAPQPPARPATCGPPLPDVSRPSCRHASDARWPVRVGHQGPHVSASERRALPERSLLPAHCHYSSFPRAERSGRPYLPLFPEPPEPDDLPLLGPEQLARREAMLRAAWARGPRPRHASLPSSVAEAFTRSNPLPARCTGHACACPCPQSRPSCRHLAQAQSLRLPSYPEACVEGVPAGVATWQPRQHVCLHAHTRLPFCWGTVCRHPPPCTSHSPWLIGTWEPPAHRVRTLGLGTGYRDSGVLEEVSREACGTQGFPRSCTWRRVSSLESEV

[8] = target: Sigma 2 receptor; experiment: Binding affinity towards sigma 2 receptor using [3H]DTG in the presence of 200 nM (+)-NANM from guinea pig brain; design: species or system Cavia porcellus
[9] = target: D(2) dopamine receptor (Rattus norvegicus, UniProt P61169); experiment: Compound was tested for its binding affinity towards Dopamine receptor D2 using [3H]spiperone from rat striatum
Sequence of D(2) dopamine receptor (P61169 whole entry): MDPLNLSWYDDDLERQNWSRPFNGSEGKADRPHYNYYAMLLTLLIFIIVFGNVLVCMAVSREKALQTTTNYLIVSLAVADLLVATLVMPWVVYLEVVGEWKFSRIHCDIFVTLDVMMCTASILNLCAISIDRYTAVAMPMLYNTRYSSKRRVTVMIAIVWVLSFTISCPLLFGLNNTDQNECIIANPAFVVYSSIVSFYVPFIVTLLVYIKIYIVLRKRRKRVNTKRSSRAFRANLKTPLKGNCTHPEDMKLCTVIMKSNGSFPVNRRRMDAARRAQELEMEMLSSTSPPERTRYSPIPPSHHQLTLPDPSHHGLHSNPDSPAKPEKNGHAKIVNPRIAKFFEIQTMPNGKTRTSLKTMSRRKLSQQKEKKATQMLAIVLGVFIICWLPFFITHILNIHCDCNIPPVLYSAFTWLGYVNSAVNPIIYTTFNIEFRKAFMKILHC

Row | Structure (SMILES) | Ki [1] [µM] | Ki [2] [µM] | Ki [3] [µM] | Ki [4] [µM] | Ki [5] [µM] | Ki [6] [µM] | Ki [7] [µM] | Ki [8] [µM] | Ki [9] [µM]
1 | O=C1c2ccccc2CCC12CCN(Cc1ccccc1)CC2 | 0.218 | > 10 | > 10 | > 10 | 2.7 | > 10 | > 10 | 0.01 | 
2 | [O-][S+]1c2ccccc2CCC12CCN(Cc1ccccc1)CC2 (stereo unspecified) | > 10 | > 10 | > 10 | > 10 | > 10 | > 10 | > 10 | 1.7 | > 10
3 | CN1CCN(C2=Nc3cc(Cl)ccc3Nc3ccccc32)CC1 [CLOZAPINE] |  |  |  |  |  |  |  | > 10 | 
4 | O=S1(=O)c2ccccc2CCC12CCN(Cc1ccccc1)CC2 | > 10 | > 10 | > 10 | > 10 | > 10 | > 10 | > 10 | 1.8 | > 10
5 | c1ccc(CN2CCC3(CCc4ccccc4S3)CC2)cc1 | 7.6 | > 10 | > 10 | > 10 | 10.8 | > 10 | > 10 | 0.416 | 10.4
6 | c1ccc(CN2CCC3(CCc4ccccc4O3)CC2)cc1 | > 10 | > 10 | > 10 | > 10 | > 10 | > 10 | > 10 | 0.022 | > 10
7 | COc1ccccc1CNCCCCCCNCCCCCCCCNCCCCCCNCc1ccccc1OC [METHOCTRAMINE] |  |  |  | 0.998 |  |  |  |  | 
